According to ChEMBL document CHEMBL3804809, “Fatty Acid Transport Proteins: Targeting FATP2 as a Gatekeeper Involved in the Transport of Exogenous Fatty Acids” (Medchemcomm, 2016):

Experiments:
[1] = target: Long-chain fatty acid transport protein 2 (Homo sapiens, UniProt O14975); experiment: Inhibition of FATP2 in human HepG2 cells assessed as decrease in fatty acid transport after 5 mins by trypan blue dye based fluorescence quenching method; format: cell-based
Mus musculus [2] = experiment: Inhibition of 3C18-oleate absorption in tyloxapol-treated C57BL/6 mouse plasma at 300 mg/kg administered through gavage for 1 hr followed by 3C18-oleate addition measured after 0.5 to 6 hrs by LC/MS-MS analysis; format: functional; details: C57BL/6, Plasma, po
Mus musculus [3] = experiment: Upregulation of FATP2 mRNA level in C57BL mouse small intestine at 0.01% administered through diet for 3 days by RT-PCR analysis; format: functional
Mus musculus [4] = experiment: Downregulation of FATP2 mRNA level in […] null C57BL mouse small intestine at 0.01% administered through diet for 3 days by RT-PCR analysis; format: functional
Mus musculus [5] = experiment: Upregulation of FATP2 mRNA level in C57BL mouse small intestine at 0.1% administered through diet for 3 days by RT-PCR analysis; format: functional
Mus musculus [6] = experiment: Downregulation of FATP2 mRNA level in […] null C57BL mouse small intestine at 0.1% administered through diet for 3 days by RT-PCR analysis; format: functional

Sequence of Long-chain fatty acid transport protein 2 (O14975 whole entry, looked up): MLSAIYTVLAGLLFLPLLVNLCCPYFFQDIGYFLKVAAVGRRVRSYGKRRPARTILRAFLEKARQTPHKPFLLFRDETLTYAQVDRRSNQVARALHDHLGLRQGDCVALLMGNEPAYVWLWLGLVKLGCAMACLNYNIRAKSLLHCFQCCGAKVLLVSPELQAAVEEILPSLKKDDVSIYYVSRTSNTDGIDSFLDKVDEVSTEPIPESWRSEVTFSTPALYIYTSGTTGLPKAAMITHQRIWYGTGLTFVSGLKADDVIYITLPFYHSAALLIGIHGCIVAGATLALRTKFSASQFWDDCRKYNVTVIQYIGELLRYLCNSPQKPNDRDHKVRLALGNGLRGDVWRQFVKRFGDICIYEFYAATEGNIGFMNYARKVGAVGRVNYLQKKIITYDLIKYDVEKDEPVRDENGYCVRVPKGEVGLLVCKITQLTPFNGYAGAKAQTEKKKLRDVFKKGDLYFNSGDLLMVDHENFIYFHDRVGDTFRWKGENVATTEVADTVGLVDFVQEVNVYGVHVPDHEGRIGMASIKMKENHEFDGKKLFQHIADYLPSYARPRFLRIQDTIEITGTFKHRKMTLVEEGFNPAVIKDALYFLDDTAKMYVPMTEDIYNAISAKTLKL

O=C1Nc2ccc(Br)cc2C12NN=C(c1ccccc1)S2 (configuration not stated)
IC50 [1]: 6.7 µM | inhibition in vivo at 300 mg/kg (Mus musculus [2]): 80%

O=c1cc(-c2ccc([N+](=O)[O-])cc2)[nH]c2c(-c3ccc(Cl)cc3)c(Cc3ccccc3)nn12
IC50 [1]: 6.3 µM

CC(C)(Sc1ccc(CCN(CCCCC2CCCCC2)C(=O)NC2CCCCC2)cc1)C(=O)O [GW7647]
fold change (FC) (Mus musculus [3]): 4 | fold change (FC) (Mus musculus [4]): 2

Cc1cccc(Nc2cc(Cl)nc(SCC(=O)O)n2)c1C [PIRINIXIC ACID]
fold change (FC) (Mus musculus [5]): 4 | fold change (FC) (Mus musculus [6]): 2
